Reference: ChEMBL document CHEMBL2203208, “Synthesis and structure-activity relationships of dual PI3K/mTOR inhibitors based on a 4-amino-6-methyl-1,3,5-triazine sulfonamide scaffold” (Bioorg Med Chem Lett, 2012)
Converted amounts (≈) assume the structure as drawn.

Assays:
[1] = molecular target: Phosphatidylinositol 4,5-bisphosphate 3-kinase catalytic subunit alpha isoform (Homo sapiens, UniProt P42336)
Description: Inhibition of human N-terminal polyHis-tagged PI3K p110alpha expressed in baculovirus infected Hi5 cells using Phosphatidylinositol-4,5-bisphosphate as substrate after 20 mins by AlphaScreen assay

physchem [2] = settings: simulated intestinal fluid
Description: Equilibrium solubility of the compound in simulated intestinal fluid after 48 to 72 hrs

physchem [3] = settings: phosphate buffered saline
Description: Equilibrium solubility of the compound in phosphate buffered saline after 48 to 72 hrs

physchem [4] = settings: 0.01N HCl
Description: Equilibrium solubility of the compound in 0.01N HCl after 48 to 72 hrs

[5] = molecular target: Phosphatidylinositol 4,5-bisphosphate 3-kinase catalytic subunit gamma isoform (Homo sapiens, UniProt P48736); design: species or system BTI-TN-5B1-4
Chain of Phosphatidylinositol 4,5-bisphosphate 3-kinase catalytic subunit gamma isoform (P48736 whole entry, canonical isoform): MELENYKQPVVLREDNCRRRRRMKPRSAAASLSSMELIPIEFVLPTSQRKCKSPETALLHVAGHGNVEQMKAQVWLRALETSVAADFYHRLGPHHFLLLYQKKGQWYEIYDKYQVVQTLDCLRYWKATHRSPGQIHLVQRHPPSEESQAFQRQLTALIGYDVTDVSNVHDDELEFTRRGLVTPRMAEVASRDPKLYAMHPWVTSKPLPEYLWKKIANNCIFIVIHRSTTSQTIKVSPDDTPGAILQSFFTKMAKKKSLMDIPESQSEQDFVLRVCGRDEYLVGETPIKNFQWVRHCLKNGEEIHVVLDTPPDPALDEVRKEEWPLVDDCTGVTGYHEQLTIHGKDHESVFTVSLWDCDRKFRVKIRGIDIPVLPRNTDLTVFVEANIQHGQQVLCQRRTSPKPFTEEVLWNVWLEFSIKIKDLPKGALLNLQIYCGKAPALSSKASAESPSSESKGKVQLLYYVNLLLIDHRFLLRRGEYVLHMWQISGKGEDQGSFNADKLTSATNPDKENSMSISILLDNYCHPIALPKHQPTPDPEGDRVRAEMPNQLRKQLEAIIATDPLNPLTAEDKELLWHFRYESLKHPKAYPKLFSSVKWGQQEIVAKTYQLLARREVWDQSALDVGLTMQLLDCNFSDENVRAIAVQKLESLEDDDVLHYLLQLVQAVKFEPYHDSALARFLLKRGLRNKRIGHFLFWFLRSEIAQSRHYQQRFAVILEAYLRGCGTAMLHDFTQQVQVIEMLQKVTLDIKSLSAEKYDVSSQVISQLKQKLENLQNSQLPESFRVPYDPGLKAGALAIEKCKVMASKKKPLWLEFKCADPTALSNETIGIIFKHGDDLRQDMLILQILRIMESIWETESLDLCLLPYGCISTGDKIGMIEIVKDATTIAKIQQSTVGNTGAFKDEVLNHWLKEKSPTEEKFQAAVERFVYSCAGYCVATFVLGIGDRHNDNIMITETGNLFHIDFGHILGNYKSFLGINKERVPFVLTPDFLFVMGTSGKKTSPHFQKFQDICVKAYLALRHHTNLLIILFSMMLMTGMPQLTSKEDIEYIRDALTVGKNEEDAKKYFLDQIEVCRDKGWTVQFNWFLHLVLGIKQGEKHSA

[6] = molecular target: Serine/threonine-protein kinase mTOR (Homo sapiens, UniProt P42345)
Description: Inhibition of recombinant N-terminal GST-tagged mTOR using GFP-4EBP as substrate after 90 mins by TR-FRET assay

[7] = molecular target: T1, Phosphatidylinositol 4,5-bisphosphate 3-kinase catalytic subunit delta isoform (Homo sapiens, UniProt O00329)
T1 sequence (O00329 whole entry): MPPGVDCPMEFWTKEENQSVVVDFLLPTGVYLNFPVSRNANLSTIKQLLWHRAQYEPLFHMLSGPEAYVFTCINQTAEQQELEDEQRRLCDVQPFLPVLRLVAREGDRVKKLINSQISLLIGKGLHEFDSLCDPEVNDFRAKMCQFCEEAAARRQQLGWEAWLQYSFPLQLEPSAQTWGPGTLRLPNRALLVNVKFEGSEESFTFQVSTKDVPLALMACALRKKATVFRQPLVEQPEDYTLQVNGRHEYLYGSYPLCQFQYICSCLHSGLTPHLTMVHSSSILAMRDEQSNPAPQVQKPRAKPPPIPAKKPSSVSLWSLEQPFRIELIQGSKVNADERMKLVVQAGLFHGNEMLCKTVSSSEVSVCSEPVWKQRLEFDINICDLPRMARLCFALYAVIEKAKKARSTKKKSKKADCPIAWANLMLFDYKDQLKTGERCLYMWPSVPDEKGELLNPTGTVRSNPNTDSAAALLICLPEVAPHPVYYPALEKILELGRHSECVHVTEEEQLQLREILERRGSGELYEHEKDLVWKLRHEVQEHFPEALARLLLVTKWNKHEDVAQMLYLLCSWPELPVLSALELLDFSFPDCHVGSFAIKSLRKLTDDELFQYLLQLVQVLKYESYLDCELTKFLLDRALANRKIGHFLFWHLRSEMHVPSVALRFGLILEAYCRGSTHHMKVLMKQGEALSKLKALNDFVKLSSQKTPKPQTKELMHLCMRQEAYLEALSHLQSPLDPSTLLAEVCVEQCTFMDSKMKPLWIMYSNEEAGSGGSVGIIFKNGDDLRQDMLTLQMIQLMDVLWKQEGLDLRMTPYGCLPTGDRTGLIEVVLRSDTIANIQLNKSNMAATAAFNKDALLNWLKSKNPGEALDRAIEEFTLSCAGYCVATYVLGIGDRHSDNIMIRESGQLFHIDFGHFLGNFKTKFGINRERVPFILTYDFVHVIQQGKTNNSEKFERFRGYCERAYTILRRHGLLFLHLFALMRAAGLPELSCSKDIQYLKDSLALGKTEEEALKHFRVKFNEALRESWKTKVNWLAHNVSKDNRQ
Description: Inhibition of human N-terminal polyHis-tagged PI3K p110delta expressed in baculovirus infected Hi5 cells using Phosphatidylinositol-4,5-bisphosphate as substrate after 20 mins by AlphaScreen assay

[8] = molecular target: Phosphatidylinositol 4,5-bisphosphate 3-kinase catalytic subunit beta isoform (Homo sapiens, UniProt P42338)
Chain of Phosphatidylinositol 4,5-bisphosphate 3-kinase catalytic subunit beta isoform (P42338 whole entry, canonical isoform): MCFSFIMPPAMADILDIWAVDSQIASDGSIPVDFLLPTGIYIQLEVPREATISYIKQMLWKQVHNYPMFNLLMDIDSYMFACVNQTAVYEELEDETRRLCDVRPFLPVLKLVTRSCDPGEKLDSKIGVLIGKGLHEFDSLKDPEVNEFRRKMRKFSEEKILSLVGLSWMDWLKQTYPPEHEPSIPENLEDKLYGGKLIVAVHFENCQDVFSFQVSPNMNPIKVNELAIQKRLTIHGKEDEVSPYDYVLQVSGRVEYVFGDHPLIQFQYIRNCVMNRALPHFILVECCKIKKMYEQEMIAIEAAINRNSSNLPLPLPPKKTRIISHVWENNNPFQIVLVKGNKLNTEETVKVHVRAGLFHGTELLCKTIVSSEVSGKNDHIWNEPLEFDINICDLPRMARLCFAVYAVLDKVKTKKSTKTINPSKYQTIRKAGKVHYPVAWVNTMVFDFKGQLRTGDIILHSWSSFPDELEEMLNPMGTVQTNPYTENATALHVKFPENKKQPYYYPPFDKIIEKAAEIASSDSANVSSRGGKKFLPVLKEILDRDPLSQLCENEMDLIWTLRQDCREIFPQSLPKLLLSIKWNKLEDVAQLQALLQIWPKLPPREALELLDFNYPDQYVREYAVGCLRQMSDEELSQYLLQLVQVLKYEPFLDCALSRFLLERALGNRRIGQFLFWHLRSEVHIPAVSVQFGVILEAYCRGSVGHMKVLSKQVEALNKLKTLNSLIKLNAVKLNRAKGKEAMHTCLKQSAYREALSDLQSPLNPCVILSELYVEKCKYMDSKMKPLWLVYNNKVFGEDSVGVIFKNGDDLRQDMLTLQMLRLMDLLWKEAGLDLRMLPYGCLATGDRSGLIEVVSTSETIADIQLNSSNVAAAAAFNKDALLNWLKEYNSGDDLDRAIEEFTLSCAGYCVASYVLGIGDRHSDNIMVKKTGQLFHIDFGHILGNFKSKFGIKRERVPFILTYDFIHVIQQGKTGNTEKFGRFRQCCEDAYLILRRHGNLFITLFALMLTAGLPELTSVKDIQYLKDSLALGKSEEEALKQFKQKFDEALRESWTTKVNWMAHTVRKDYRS
Description: Inhibition of human N-terminal polyHis-tagged PI3K p110beta expressed in baculovirus infected Hi5 cells using Phosphatidylinositol-4,5-bisphosphate as substrate after 20 mins by AlphaScreen assay

in vivo [9] = settings: Sprague-Dawley, rat, plasma, po, 2 mg/kg
in vivo [10] = settings: Sprague-Dawley, rat, po, 2 mg/kg
in vivo [11] = settings: Sprague-Dawley, rat, iv, 1 mg/kg
Description: (§1) Mean residence time in Sprague-Dawley rat at 1 mg/kg, iv

in vivo [12] = settings: Sprague-Dawley, rat, iv, 1 mg/kg; remark: listed apart in the source
in vivo [13] = settings: Sprague-Dawley, rat, iv, 1 mg/kg; remark: listed apart in the source
Description: (§2) Clearance in Sprague-Dawley rat at 1 mg/kg, iv

in vitro [14] = settings: human, liver microsomes
Description: Clearance in human liver microsomes at 1 uM after 30 mins in presence of NADPH

in vitro [15] = settings: rat, liver microsomes
Description: Clearance in rat liver microsomes at 1 uM after 30 mins in presence of NADPH

[16] = Plasma protein binding in mouse; assay type: ADME, cell-free; settings: read-out: PPB (converted)
[17] = Plasma protein binding in dog; assay type: ADME, cell-free, Canis lupus familiaris; settings: read-out: PPB (converted)
[18] = Plasma protein binding in rat; assay type: ADME, cell-free; settings: read-out: PPB (converted)
[19] = Plasma protein binding in human; assay type: ADME, cell-free; settings: read-out: PPB (converted)
[20] = molecular target: Voltage-gated inwardly rectifying potassium channel KCNH2 (Homo sapiens, UniProt Q12809); experiment: Inhibition of human ERG
rodent MDR1 = experiment: Permeability across pig LLC-PK1 cells expressing rodent MDR1; assay type: ADME, cell-based, Sus scrofa; settings: read-out: permeability
human MDR1 = experiment: Permeability across pig LLC-PK1 cells expressing human MDR1; assay type: ADME, cell-based, Sus scrofa; settings: read-out: permeability
Mus musculus [21] = experiment: Inhibition of PI3K in human U87MG cells xenografted in po dosed CD1 nu/nu mouse assessed as plasma concentration required for inhibition of AKT ser473 phosphorylation after 6 hrs; assay type: functional, organism-based, U-87MG ATCC; settings: CD1, U-87 MG
[22] = molecular target: Phosphatidylinositol 3-kinase catalytic subunit type 3 (Homo sapiens, UniProt Q8NEB9); experiment: Inhibition of human VPS34 using phosphatidylinositol/phosphatidylserine as substrate after 30 mins by fluorescence-based immunoassay
Chain of Phosphatidylinositol 3-kinase catalytic subunit type 3 (Q8NEB9 whole entry): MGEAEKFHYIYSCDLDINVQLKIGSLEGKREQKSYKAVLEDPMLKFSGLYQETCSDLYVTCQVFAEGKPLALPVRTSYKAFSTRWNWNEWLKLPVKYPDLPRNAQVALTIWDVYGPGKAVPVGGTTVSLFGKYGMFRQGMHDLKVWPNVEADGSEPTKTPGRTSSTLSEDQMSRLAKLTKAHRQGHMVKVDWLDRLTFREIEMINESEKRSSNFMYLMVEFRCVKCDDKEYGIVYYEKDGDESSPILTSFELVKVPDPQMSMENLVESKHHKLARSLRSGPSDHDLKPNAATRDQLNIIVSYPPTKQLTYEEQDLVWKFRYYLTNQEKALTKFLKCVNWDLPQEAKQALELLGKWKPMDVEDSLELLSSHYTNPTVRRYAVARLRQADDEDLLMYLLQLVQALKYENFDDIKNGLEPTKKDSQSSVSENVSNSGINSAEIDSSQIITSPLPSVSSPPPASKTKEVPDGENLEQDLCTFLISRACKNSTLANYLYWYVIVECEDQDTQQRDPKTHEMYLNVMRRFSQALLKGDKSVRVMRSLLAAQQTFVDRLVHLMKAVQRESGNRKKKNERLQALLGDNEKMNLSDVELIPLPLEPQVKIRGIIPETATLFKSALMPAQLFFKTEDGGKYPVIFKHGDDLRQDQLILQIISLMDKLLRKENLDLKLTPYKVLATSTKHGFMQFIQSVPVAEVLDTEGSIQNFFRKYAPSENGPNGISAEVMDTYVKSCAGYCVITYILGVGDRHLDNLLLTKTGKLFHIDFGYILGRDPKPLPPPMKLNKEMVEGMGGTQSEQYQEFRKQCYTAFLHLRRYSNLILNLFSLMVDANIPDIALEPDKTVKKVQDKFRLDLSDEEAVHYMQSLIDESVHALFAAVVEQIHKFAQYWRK

Mus musculus [23] = species on record: Mus musculus; settings: CD1, U-87MG ATCC
Description: Inhibition of PI3K-mediated AKT Ser473 phosphorylation in human U87MG cells xenografted in po dosed CD1 nu/nu mouse after 6 hrs

Rattus norvegicus [24] = species on record: Rattus norvegicus; settings: in vivo, po, 2 mg/kg
Rattus norvegicus [25] = species on record: Rattus norvegicus; settings: in vivo, po, 2 mg/kg; remark: listed apart in the source
Rattus norvegicus [26] = species on record: Rattus norvegicus; settings: in vivo, iv, 1 mg/kg
Description: as §1

Rattus norvegicus [27] = species on record: Rattus norvegicus; settings: in vivo, iv, 1 mg/kg; remark: listed apart in the source
Rattus norvegicus [28] = species on record: Rattus norvegicus; settings: in vivo, iv, 1 mg/kg; remark: listed apart in the source
Description: as §2

Chain of Phosphatidylinositol 4,5-bisphosphate 3-kinase catalytic subunit alpha isoform (P42336 whole entry, canonical isoform): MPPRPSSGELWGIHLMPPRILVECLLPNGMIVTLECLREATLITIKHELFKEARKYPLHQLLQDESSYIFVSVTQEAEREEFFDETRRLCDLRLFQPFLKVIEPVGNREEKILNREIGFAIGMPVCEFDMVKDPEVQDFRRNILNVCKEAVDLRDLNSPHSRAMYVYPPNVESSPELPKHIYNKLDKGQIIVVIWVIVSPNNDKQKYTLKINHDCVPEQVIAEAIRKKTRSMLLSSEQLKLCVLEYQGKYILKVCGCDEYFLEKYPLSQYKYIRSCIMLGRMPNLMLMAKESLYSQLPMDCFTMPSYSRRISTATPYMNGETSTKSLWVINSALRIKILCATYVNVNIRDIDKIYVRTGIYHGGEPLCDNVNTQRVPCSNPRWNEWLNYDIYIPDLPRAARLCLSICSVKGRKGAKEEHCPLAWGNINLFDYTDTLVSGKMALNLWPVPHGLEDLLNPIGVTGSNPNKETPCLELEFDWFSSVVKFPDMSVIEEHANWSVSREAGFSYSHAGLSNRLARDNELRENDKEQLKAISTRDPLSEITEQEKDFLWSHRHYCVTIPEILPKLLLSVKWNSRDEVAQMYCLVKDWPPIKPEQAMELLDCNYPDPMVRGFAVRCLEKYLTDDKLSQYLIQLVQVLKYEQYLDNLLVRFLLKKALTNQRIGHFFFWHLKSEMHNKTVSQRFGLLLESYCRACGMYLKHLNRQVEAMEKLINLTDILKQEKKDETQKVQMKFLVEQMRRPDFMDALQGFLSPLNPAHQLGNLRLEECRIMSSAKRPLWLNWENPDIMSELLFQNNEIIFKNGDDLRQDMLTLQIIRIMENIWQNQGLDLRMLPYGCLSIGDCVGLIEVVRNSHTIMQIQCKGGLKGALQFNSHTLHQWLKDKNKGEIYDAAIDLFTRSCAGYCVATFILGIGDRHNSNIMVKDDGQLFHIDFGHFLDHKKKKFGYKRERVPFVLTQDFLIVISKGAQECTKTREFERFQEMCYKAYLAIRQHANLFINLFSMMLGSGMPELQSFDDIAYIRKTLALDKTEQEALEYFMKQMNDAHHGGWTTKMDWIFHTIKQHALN

SMILES	Ki [1] [nM]	solubility thermodynamic (physchem [2]) [µg/mL]	solubility thermodynamic (physchem [3]) [µg/mL]	solubility thermodynamic (physchem [4]) [µg/mL]	other results
Cc1nc(N)nc(-c2cc(Cl)cnc2Nc2cnc(Cl)c(NS(C)(=O)=O)c2)n1	3.5	1000 (≈ 2270 µM)	1000 (≈ 2270 µM)	1000 (≈ 2270 µM)	
Cc1nc(N)nc(-c2cc(Cl)cnc2Nc2cnc(Cl)c(NS(=O)(=O)c3cccnc3)c2)n1	13				
COc1ncc(Nc2ncc(Cl)cc2-c2nc(C)nc(N)n2)cc1NS(C)(=O)=O	114				
Cc1nc(N)nc(-c2cccnc2Nc2cnc(Cl)c(NS(=O)(=O)C3CC3)c2)n1	11	3600 (≈ 8320 µM)	1000 (≈ 2310 µM)	1000 (≈ 2310 µM)	
Cc1nc(N)nc(-c2cc(Cl)cnc2Nc2cnc(Cl)c(NS(=O)(=O)N3CCOCC3)c2)n1	8.6	11100 (≈ 21700 µM)	1000 (≈ 1950 µM)	1000 (≈ 1950 µM)	
Cc1nc(N)nc(-c2cccnc2Nc2cnc(Cl)c(NS(=O)(=O)N(C)C(C)C)c2)n1	43				
Cc1nc(N)nc(-c2cccnc2Nc2cnc(Cl)c(N)c2)n1	360				
COc1cnc(Nc2cnc(Cl)c(NS(=O)(=O)N(C)C)c2)c(-c2nc(C)nc(N)n2)c1	9.3	1 (≈ 2.15 µM)	4 (≈ 8.59 µM)	3 (≈ 6.44 µM)	Ki [5]: 2.2 nM; IC50 [6]: 74 nM; Ki [7]: 1.1 nM; Ki [8]: 4.7 nM; AUC (in vivo [9]): 859 ng·h/mL; bioavailability (in vivo [10]): 22%; MRT (in vivo [11]): 2 h; Vd (in vivo [12]): 1.01 L/kg; clearance (in vivo [13]): 8.67 mL/min/kg; microsomal CLint at 0.5 h, 1 µM (in vitro [14]): 26 µL/min/mg; microsomal CLint at 0.5 h, 1 µM (in vitro [15]): 20 µL/min/mg
Cc1nc(N)nc(-c2cc(Cl)cnc2Nc2cnc(Cl)c(N(C)S(C)(=O)=O)c2)n1	311				
Cc1nc(N)nc(-c2cc(Cl)cnc2Nc2cnc(Cl)c(NS(=O)(=O)N(C)C)c2)n1	7.7	11600 (≈ 24700 µM)	2000 (≈ 4250 µM)	1000 (≈ 2130 µM)	fraction unbound [16]: 0.0287; fraction unbound [17]: 0.0035; fraction unbound [18]: 0.002; fraction unbound [19]: 0.002; inhibition (INH) [20]: Not Active; Papp (rodent MDR1): 12.2 ×10⁻⁶ cm/s; Papp (human MDR1): 12.2 ×10⁻⁶ cm/s; EC50 (Mus musculus [21]): 0.091 µg/mL (≈ 0.193 µM); IC50 [22]: 606 nM; Ki [5]: 1 nM; Ki [7]: 0.4 nM; Ki [8]: 0.6 nM; inhibition (Mus musculus [23]): Dose-dependent effect; AUC (in vivo [9]): 3360 ng·h/mL; bioavailability (in vivo [10]): 63%; MRT (in vivo [11]): 2.5 h; Vd (in vivo [12]): 0.97 L/kg; clearance (in vivo [13]): 6.5 mL/min/kg; microsomal CLint at 0.5 h, 1 µM (in vitro [14]): 47 µL/min/mg; microsomal CLint at 0.5 h, 1 µM (in vitro [15]): 27 µL/min/mg
COCCN(C)S(=O)(=O)Nc1cc(Nc2ncc(Cl)cc2-c2nc(C)nc(N)n2)cnc1Cl	29	3200 (≈ 6220 µM)	1000 (≈ 1940 µM)	3200 (≈ 6220 µM)	
COCCOc1cnc(Nc2cnc(Cl)c(NS(C)(=O)=O)c2)c(-c2nc(C)nc(N)n2)c1	18	43 (≈ 89.4 µM)	34 (≈ 70.7 µM)	33 (≈ 68.6 µM)	Ki [5]: 14 nM; IC50 [6]: 32 nM; Ki [7]: 6.1 nM; Ki [8]: 16 nM; AUC (in vivo [9]): 1210 ng·h/mL; bioavailability (in vivo [10]): 28%; MRT (in vivo [11]): 1.1 h; Vd (in vivo [12]): 0.52 L/kg; clearance (in vivo [13]): 7.67 mL/min/kg; microsomal CLint at 0.5 h, 1 µM (in vitro [14]): < 14 µL/min/mg; microsomal CLint at 0.5 h, 1 µM (in vitro [15]): < 14 µL/min/mg
Cc1nc(N)nc(-c2cccnc2Nc2cnc(Cl)c(NS(=O)(=O)N3CCOCC3)c2)n1	16				
Cc1nc(N)nc(-c2cccnc2Nc2cnc(Cl)c(NS(C)(=O)=O)c2)n1	20	46200 (≈ 114000 µM)	2900 (≈ 7130 µM)	5800 (≈ 14300 µM)	IC50 [22]: 1290 nM; Ki [5]: 2.4 nM; IC50 [6]: 198 nM; Ki [7]: 1.2 nM; Ki [8]: 4.4 nM; AUC (Rattus norvegicus [24]): 4238 ng·h/mL; F (Rattus norvegicus [25]): 33%; MRT (Rattus norvegicus [26]): 4.5 h; Vdss (Rattus norvegicus [27]): 0.4 L/kg; CL (Rattus norvegicus [28]): 6.5 mL/min/kg; microsomal CLint at 0.5 h, 1 µM (in vitro [14]): < 14 µL/min/mg; microsomal CLint at 0.5 h, 1 µM (in vitro [15]): < 14 µL/min/mg
COc1cnc(Nc2cnc(Cl)c(NS(=O)(=O)N3CCOCC3)c2)c(-c2nc(C)nc(N)n2)c1	13	1 (≈ 1.97 µM)	14 (≈ 27.6 µM)	5 (≈ 9.84 µM)	
Cc1nc(N)nc(-c2cccnc2Nc2cnc(Cl)c(NS(=O)(=O)N(C)C)c2)n1	11	1000 (≈ 2290 µM)	3600 (≈ 8260 µM)	4700 (≈ 10800 µM)	
COc1cnc(Nc2cnc(Cl)c(NS(C)(=O)=O)c2)c(-c2nc(C)nc(N)n2)c1	11	1 (≈ 2.29 µM)	1 (≈ 2.29 µM)	1 (≈ 2.29 µM)	AUC (Rattus norvegicus [24]): 419 ng·h/mL; F (Rattus norvegicus [25]): 1.8%; CL (Rattus norvegicus [28]): 3.5 mL/min/kg; MRT (in vivo [11]): 1.3 h; Vd (in vivo [12]): 0.28 L/kg; microsomal CLint at 0.5 h, 1 µM (in vitro [14]): < 14 µL/min/mg; microsomal CLint at 0.5 h, 1 µM (in vitro [15]): < 14 µL/min/mg
Cc1nc(N)nc(-c2cc(Cl)cnc2Nc2cnc(C)c(NS(C)(=O)=O)c2)n1	161				
Cc1nc(N)nc(-c2cc(CN3CCOCC3)cnc2Nc2cnc(Cl)c(NS(=O)(=O)N(C)C)c2)n1	1.9	16 (≈ 29.9 µM)	11 (≈ 20.6 µM)	200 (≈ 374 µM)	
Cc1nc(N)nc(-c2cccnc2Nc2cnc(Cl)c(NS(=O)(=O)c3ccc(F)cc3)c2)n1	16	46200 (≈ 94900 µM)	2900 (≈ 5960 µM)	5800 (≈ 11900 µM)	
Cc1nc(N)nc(-c2cc(CN3CCOCC3)cnc2Nc2cnc(Cl)c(NS(C)(=O)=O)c2)n1	9.7	8 (≈ 15.8 µM)	11 (≈ 21.7 µM)	200 (≈ 395 µM)	
